Assay results from EP0628539B1, “Polyepoxysuccinic acid derivatives and their use for the control of scale formation and corrosion in aqueous systems” (BetzDearborn Europe, Inc., priority 1993, dated 1994).

Columns and labels:
[1] = Static calcium carbonate % inhibition evaluation (EDTA titration of filtrate calcium); settings: 1106 ppm Ca as CaCO3, 1160 ppm CO3 as CaCO3, pH = 9.0, Temp. = 70°C, Duration = 17 hours
Protocol: Table II summarizes the static calcium carbonate inhibition testing of the compounds of the present invention compared to several prior art calcium carbonate control agents. The tests were performed by adding the treatment solution (sample) to a carbonate stock solution of the described conditions.
A calcium stock solution was then added and the mixture was incubated for 17 hours at 70°C. All treatments were adjusted to pH 9.0 prior to use and the treatment weights, expressed as the sodium salts, accounted for the presence of disodium tartrate by-product. After cooling, a measured portion of the mixture was filtered and the filtrate pH adjusted to less than 1 with hydrochloric acid. The filtrate was then diluted and pH adjusted to 12 with sodium hydroxide. A calcium indicator, murexide, was then added and the solution titrated with a known concentration of ethylenediaminetetraacetic acid (EDTA). From titrations for the treated, stock and control solutions, the percent inhibition was calculated as follows: % Inhibition =(mls EDTA(treated) - mls EDTA(control))/(mls EDTA(stock) - mls EDTA(control))x 100 [formula]

[2] = Beaker Corrosion Test Apparatus (BCTA): coupon and probe weight loss, electrochemical corrosion rate; settings: 25 ppm, base treatment 1 ppm HEDP, 10 ppm acrylic copolymer, 15 ppm molybdate (PESA: no HEDP), pH 8.4, 120°F, 40 hours
Protocol: The corrosion inhibition activity of the present invention was evaluated with a Beaker Corrosion Test Apparatus (BCTA). […] The test solution volume is 1.9 liters.
Electrochemical corrosion rate data (EC) are obtained during the test from potentiodynamic polarization resistance measurements. Additional corrosion data is obtained from the coupon and the electrochemical probe by standard weight loss measurement techniques. All tests were conducted under the following conditions unless otherwise noted:
Under these conditions, the test water is supersaturated with respect to calcium carbonate. […] Therefore, all tests were conducted with a base treatment to inhibit the precipitation of calcium carbonate under the test conditions. The blank runs reported for all tests include the addition of the base treatment.
In all tests, the blank corrosion rates are expressed in mils per year (mpy). The corrosion rates for the inhibitor compounds are expressed as a reduction in the corrosion rate relative to the blank calculated according to the following equation: % Corrosion Inhibition =((mpy Blank - mpy Treated))/(mpy Blank)x 100 [formula]
All tests were conducted as parts per million of the inhibitor molecule as the sodium salt. Compound αHCA(12) was evaluated as ppm of the free acid.
A sample of poly[epoxysuccinic acid]

SMILES | Static Calcium Carbonate % Inhibition ([1]; 5 ppm Actives) | Static Calcium Carbonate % Inhibition ([1]; 10 ppm Actives) | Percent Corrosion Inhibition, Coupon ([2]; coupon weight loss relative to blank (62.4 mpy)) | Percent Corrosion Inhibition, EC (avg) ([2]; electrochemical corrosion rate relative to blank (47.1 mpy)) | Percent Corrosion Inhibition, Probe ([2]; probe weight loss relative to blank (58.9 mpy))
CC(O)(P(=O)(O)O)P(=O)(O)O [HEDP, 1-hydroxyethylidene-1,1-diphosphonic acid] | 73.1% | 71.3% |  |  | 
O=C(O)CCC(CC(=O)O)(C(=O)O)P(=O)(O)O (stereo not drawn) [PBSAM, 2-phosphonobutane - 1,2,4-tricarboxylic acid] | 67.5% | 76.0% |  |  | 
O=C([O-])C(O)[C@H](NCCS(=O)(=O)[O-])C(=O)[O-].[Na+].[Na+].[Na+] (stereo partly drawn) [αHCA(9), aspartic acid, 3-hydroxy, N-[2-ethanesulfonic acid]-trisodium salt] | 5.1% | 3.7% | 29.3% | 69.4% | 66.2%
